Source: ChEMBL document CHEMBL1800002, “Indazole derivatives as novel bradykinin B1 receptor antagonists” (Bioorg Med Chem Lett, 2010)
pKi: −log10 of the molar value.

Columns and labels:
[1] = target: ATP-dependent translocase ABCB1 (Homo sapiens, UniProt P08183); assay: Drug transport assessed as MDR1 -mediated transcellular transport ratio by P-gp transport assay; type: ADME
[2] = Apparent passive permeability coefficient by cell based assay; type: ADME
[3] = Oral bioavailability in Sprague-Dawley rat at 10 mg/kg; type: ADME, organism-based; conditions: in vivo
[4] = Half life in Sprague-Dawley rat at 10 mg/kg, po or 2 mg/kg, iv; type: ADME, organism-based; conditions: in vivo
[5] = Clearance in Sprague-Dawley rat at 10 mg/kg, po or 2 mg/kg, iv; type: ADME, organism-based; conditions: in vivo
[6] = Half life in Mongrel dog at 3 mg/kg, po or 1 mg/kg, iv; type: ADME, organism-based, Canis lupus familiaris; conditions: in vivo
[7] = Clearance in Mongrel dog at 3 mg/kg, po or 1 mg/kg, iv; type: ADME, organism-based, Canis lupus familiaris; conditions: in vivo
[8] = target: Cannabinoid receptor 2 (Homo sapiens, UniProt P34972); assay: Displacement of radioligand from human CB2 receptor expressed in CHO cells; type: cell-based
Chain of Cannabinoid receptor 2 (P34972 whole entry): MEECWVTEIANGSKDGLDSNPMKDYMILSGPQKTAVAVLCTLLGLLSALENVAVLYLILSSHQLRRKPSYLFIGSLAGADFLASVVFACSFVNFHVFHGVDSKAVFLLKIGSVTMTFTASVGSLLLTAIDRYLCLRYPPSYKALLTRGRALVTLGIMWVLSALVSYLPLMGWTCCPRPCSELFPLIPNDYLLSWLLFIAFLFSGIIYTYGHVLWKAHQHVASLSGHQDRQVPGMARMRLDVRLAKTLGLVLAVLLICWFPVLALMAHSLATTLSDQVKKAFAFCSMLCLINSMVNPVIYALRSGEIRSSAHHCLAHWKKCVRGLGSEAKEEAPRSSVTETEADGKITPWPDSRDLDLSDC

[9] = test system: Liver microsomes; assay: Stability in human liver microsomes; type: ADME, Microsome

Chain of ATP-dependent translocase ABCB1 (P08183 whole entry): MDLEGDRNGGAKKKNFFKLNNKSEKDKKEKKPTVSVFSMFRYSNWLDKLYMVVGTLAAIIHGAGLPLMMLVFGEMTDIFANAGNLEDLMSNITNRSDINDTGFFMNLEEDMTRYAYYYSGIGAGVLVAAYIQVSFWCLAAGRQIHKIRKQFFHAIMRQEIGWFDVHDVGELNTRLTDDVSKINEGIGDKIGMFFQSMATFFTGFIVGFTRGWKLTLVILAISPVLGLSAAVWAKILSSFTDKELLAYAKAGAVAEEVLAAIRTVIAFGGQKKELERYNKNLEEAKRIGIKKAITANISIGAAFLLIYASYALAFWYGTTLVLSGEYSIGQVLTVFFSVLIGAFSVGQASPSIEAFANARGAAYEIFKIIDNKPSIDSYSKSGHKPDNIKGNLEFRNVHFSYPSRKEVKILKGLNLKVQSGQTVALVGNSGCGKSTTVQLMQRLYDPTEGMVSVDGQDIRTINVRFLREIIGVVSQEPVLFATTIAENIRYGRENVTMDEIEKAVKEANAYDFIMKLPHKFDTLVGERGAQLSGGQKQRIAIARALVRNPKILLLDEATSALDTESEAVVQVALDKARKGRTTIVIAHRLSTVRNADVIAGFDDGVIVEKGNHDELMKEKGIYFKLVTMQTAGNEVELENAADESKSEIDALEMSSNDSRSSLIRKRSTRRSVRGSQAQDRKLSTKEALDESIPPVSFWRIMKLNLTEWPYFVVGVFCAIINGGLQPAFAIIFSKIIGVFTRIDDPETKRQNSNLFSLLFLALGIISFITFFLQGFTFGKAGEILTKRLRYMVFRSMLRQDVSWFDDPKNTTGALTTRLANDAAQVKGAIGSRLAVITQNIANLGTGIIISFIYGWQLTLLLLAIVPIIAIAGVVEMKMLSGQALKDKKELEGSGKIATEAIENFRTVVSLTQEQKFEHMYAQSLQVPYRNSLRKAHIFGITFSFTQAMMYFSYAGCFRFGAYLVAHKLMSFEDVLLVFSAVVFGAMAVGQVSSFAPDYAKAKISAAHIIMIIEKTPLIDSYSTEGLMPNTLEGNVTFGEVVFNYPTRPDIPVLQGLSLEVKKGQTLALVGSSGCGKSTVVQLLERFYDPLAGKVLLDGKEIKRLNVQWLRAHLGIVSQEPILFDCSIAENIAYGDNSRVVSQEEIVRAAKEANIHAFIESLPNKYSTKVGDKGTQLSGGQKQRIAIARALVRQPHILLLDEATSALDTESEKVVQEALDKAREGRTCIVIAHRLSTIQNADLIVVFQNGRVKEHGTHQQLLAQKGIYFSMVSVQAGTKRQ

Ratio [1] | Papp [2] [nm/s] | half-life [6] [h] | clearance [7] [L/h/kg] | pKi [8] | Compound | also measured
5.3 | 210 | 2.3 | 0.33 | – | COc1cncc(C(=O)NC2(C(=O)N[C@H](C)c3ccc(-n4nc(Cl)c5ccccc54)cc3F)CC2)c1 | bioavailability [3]: 6%; half-life [4]: 0.7 h; clearance [5]: 0.468 L/h/kg
2.2 | 82 | 7.1 | 0.156 | – | C[C@@H](NC(=O)C1(NC(=O)c2ccc(Br)nc2)CC1)c1ccc(-n2nc(Cl)c3ccccc32)cc1F | –
– | – | – | – | < 5.00 | COc1cc(C(=O)NC2(C(=O)N[C@H](C)c3ccc(-n4nc(C5CC5)c5ccccc54)cc3F)CC2)on1 | –
7.5 | 240 | – | – | – | C[C@@H](NC(=O)C1(NC(=O)c2cncc(F)c2)CC1)c1ccc(-n2nc(Cl)c3ccccc32)cc1F | –
– | – | – | – | < 5.00 | COc1cc(C(=O)NC2(C(=O)N[C@H](C)c3ccc(-n4[nH]c(=O)c5ccccc54)cc3F)CC2)on1 | –
– | – | – | – | < 5.00 | COc1cc(C(=O)NC2(C(=O)N[C@H](C)c3ccc(-n4nc(Br)c5ccccc54)cc3F)CC2)on1 | –
4.1 | – | – | – | – | COC(=O)c1c(F)cccc1-c1ccc(CNC(=O)C2(NC(=O)C(F)(F)F)CC2)c(F)c1 | –
1.8 | 240 | 15.1 | 0.63 | – | C[C@@H](NC(=O)C1(NC(=O)c2cncc(Cl)n2)CC1)c1ccc(-n2nc(Cl)c3ccccc32)cc1F | half-life [4]: 1.6 h; clearance [5]: 6.3 L/h/kg
– | – | – | – | < 5.00 | COc1cc(C(=O)NC2(C(=O)N[C@H](C)c3ccc(-n4nc(OC)c5ccccc54)cc3F)CC2)on1 | –
55.6 | 190 | – | – | – | C[C@@H](NC(=O)C1(NC(=O)c2cn[nH]c2)CC1)c1ccc(-n2nc(Cl)c3ccccc32)cc1F | Stability [9]: Stable
2.5 | 150 | 6 | 0.186 | – | C[C@@H](NC(=O)C1(NC(=O)c2cncc(Cl)c2)CC1)c1ccc(-n2nc(Cl)c3ccccc32)cc1F | –
1.6 | 300 | – | – | – | C[C@@H](NC(=O)C1(NC(=O)c2cnccn2)CC1)c1ccc(-n2nc(Cl)c3ccccc32)cc1F | –
– | – | – | – | < 5.00 | COc1cc(C(=O)NC2(C(=O)N[C@H](C)c3ccc(-n4nc(-c5ccccc5)c5ccccc54)cc3F)CC2)on1 | –
– | – | – | – | – | Cc1ncsc1C(=O)NC1(C(=O)N[C@H](C)c2ccc(-n3nc(Cl)c4ccccc43)cc2F)CC1 | Stability [9]: Unstable
5.9 | 240 | – | – | – | C[C@@H](NC(=O)C1(NC(=O)c2cncnc2)CC1)c1ccc(-n2nc(Cl)c3ccccc32)cc1F | –
2.8 | 190 | 4.3 | 0.066 | – | C[C@@H](NC(=O)C1(NC(=O)c2cncs2)CC1)c1ccc(-n2nc(Cl)c3ccccc32)cc1F | –
2.3 | 130 | 7.6 | 0.228 | – | C[C@@H](NC(=O)C1(NC(=O)c2cncc(Br)c2)CC1)c1ccc(-n2nc(Cl)c3ccccc32)cc1F | bioavailability [3]: 24%; half-life [4]: 3.1 h; clearance [5]: 0.15 L/h/kg
1.8 | 140 | 8.3 | 0.102 | – | COc1ncc(C(=O)NC2(C(=O)N[C@H](C)c3ccc(-n4nc(Cl)c5ccccc54)cc3F)CC2)s1 | bioavailability [3]: 13%; half-life [4]: 8.3 h; clearance [5]: 0.762 L/h/kg
2.3 | 210 | 2.4 | 0.576 | – | Cc1nnsc1C(=O)NC1(C(=O)N[C@H](C)c2ccc(-n3nc(Cl)c4ccccc43)cc2F)CC1 | –
– | – | – | – | < 5.00 | COc1cc(C(=O)NC2(C(=O)N[C@H](C)c3ccc(-n4nc(C#N)c5ccccc54)cc3F)CC2)on1 | –
– | – | – | – | < 5.00 | COc1cc(C(=O)NC2(C(=O)N[C@H](C)c3ccc(-n4ncc5ccccc54)cc3F)CC2)on1 | –
29.4 | 250 | – | – | – | C[C@@H](NC(=O)C1(NC(=O)c2ccnnc2)CC1)c1ccc(-n2nc(Cl)c3ccccc32)cc1F | –
1.9 | 220 | 2.6 | 0.258 | – | Cc1cncc(C(=O)NC2(C(=O)N[C@H](C)c3ccc(-n4nc(Cl)c5ccccc54)cc3F)CC2)c1 | –
– | – | – | – | < 5.00 | CCc1nn(-c2ccc([C@@H](C)NC(=O)C3(NC(=O)c4cc(OC)no4)CC3)c(F)c2)c2ccccc12 | –
1.6 | 260 | 20.8 | 0.078 | < 5.00 | COc1cc(C(=O)NC2(C(=O)N[C@H](C)c3ccc(-n4nc(Cl)c5ccccc54)cc3F)CC2)on1 | bioavailability [3]: 49%; half-life [4]: 3.1 h; clearance [5]: 0.318 L/h/kg
– | – | – | – | < 5.00 | COc1cc(C(=O)NC2(C(=O)N[C@H](C)c3ccc(-n4nc(C)c5ccccc54)cc3F)CC2)on1 | –
89 | 180 | – | – | – | C[C@@H](NC(=O)C1(NC(=O)c2cncc(O)c2)CC1)c1ccc(-n2nc(Cl)c3ccccc32)cc1F | –
